Assay results reported in ChEMBL document CHEMBL1201862, “PubChem BioAssay data set” (2004).
pIC50: −log10 of the molar value. The source made the active and inactive calls.

What was measured:
Vero [1] = experiment: cytotoxicity of synthesized analogs in Vero cells, SAR follow-up, cytotoxicity control for West Nile virus antiviral project, cell-based, set II (AID 2402); assay type: functional; details: Chlorocebus sabaeus
[2] = A Cell Based Assay for the Identification of Probe candidate Compounds with Anti- Venezuelan Equine Encephalitis virus. [Related pubchem assays: 2409, 2419, 1621, 2238, 2405, 2024, 2065, 2402, 2414, 1635, 1650, 2244 ]; assay type: functional
Vero [3] = experiment: cytotoxicity of synthesized analogs in Vero 76, SAR follow-up, cytotoxicity control for West Nile virus antiviral project, Vero 76 cells (AID 2414); assay type: functional; details: Chlorocebus sabaeus
Beta-galactosidase [4] = molecular target: T1, Beta-galactosidase (Escherichia coli, UniProt Q8VNN2); assay type: functional
BJ = experiment: cytotoxicity toward Ras-transformed BJeLR fibroblasts, dose response, cell-based, alamar blue fluorescence, cherrypicked samples (AID 2631); assay type: functional; details: Homo sapiens;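 note: confirmatory dose-response assay in RAS-dependent BJ fibroblasts engineered with TERT, LT and ST, with cytotoxicity read by fluorescence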
[5] = molecular target: T2, Kappa-type opioid receptor (Homo sapiens, UniProt P41145); assay type: functional
[6] = C. albicans growth with fluconazole, confirmation, fluorescence, retest (AID 2467); assay type: functional, cell-based
[7] = molecular target: T3, Replicative DNA helicase DnaB (Mycobacterium tuberculosis, UniProt P9WMR3); experiment: DnaB intein splicing inhibitors, dose response, biochemical, cell-free fluorescence (AID 449749); assay type: functional
T3 sequence (P9WMR3 whole entry): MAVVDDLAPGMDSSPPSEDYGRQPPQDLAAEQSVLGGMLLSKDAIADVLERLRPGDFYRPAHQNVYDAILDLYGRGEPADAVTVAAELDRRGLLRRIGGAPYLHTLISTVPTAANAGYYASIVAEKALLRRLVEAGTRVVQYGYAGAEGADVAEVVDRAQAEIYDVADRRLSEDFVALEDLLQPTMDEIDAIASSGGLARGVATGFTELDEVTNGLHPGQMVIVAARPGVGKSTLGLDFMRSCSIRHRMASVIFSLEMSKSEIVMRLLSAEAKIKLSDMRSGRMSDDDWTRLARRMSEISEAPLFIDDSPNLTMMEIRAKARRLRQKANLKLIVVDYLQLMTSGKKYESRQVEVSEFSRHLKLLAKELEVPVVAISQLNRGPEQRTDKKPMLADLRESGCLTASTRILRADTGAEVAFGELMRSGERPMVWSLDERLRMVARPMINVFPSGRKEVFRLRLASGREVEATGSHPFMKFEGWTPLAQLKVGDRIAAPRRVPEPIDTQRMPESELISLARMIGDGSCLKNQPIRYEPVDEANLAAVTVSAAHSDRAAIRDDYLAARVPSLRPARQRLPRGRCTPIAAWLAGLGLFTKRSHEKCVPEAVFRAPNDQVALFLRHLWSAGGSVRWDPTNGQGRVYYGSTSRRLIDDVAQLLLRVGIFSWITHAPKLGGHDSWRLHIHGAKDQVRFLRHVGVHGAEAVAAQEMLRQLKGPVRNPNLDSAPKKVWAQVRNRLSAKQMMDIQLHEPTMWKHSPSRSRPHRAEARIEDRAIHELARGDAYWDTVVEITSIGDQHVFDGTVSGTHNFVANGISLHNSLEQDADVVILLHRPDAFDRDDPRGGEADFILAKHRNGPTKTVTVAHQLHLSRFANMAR

[8] = molecular target: T4, Type-1 angiotensin II receptor (Homo sapiens, UniProt P30556); experiment: AT1 receptor antagonists, dose response, selectivity assay for APJ receptor antagonist project, cell-based, uHTS hits (AID 463214); assay type: functional;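 note: antagonist potency against angiotensin II stimulated AT1 response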
T4 sequence (P30556 whole entry): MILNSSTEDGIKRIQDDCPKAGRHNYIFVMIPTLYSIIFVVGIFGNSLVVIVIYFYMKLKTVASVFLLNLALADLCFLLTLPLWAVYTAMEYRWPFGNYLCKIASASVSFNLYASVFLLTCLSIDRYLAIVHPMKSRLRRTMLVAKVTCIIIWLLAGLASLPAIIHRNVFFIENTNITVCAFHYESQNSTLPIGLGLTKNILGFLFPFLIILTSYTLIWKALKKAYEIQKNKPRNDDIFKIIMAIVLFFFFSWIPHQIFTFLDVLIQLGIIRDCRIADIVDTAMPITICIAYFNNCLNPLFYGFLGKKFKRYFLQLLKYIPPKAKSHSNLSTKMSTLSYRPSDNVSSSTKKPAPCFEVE

Beta-galactosidase [9] = molecular target: T1, Beta-galactosidase; experiment: PubChem AID 485352; assay type: functional
[10] = molecular target: Sphingosine 1-phosphate receptor 1 (Homo sapiens, UniProt P21453); assay type: functional;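 note: Tango beta-arrestin reporter U2OS cells stimulated with S1P near its EC80; inhibitor potency meaning antagonism of receptor activation by the natural agonist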
[11] = A549 cell cytotoxicity, dose response, cytotoxicity control, plate reader, cherry-pick, antagonist series (AID 743412); assay type: functional, cell-based
[12] = inhibitors of PGC1a acetylation in cells, dose response, cell-based, cherry-picked samples (AID 720514); assay type: functional;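 note: potency may reflect raised or lowered acetylation signal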
[13] = LGR2 antagonists, dose response, cell-based, HEK293, CRE-luciferase reporter, cherry pick, set 2 (AID 743343); assay type: functional;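 note: transfected cells were stimulated with diluted bursicon conditioned medium after compound addition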
[14] = NIH-3T3 fibroblast cytotoxicity, dose response, cytotoxicity control, cell-based, fluorescence, Alamar Blue, secondary assay (AID 2327); assay type: functional;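 note: NIH-3T3 mouse fibroblasts cultured with fluconazole at 8 µg/mL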
[15] = molecular target: Sphingosine 1-phosphate receptor 4 (Homo sapiens, UniProt O95977); experiment: Fluorescence dose response cell-based high throughput screening assay for antagonists of the Sphingosine 1-Phosphate Receptor 4 (S1P4). [Related pubchem assays: 1524 (Confirmation in triplicates.), 1510 (Primary screen.)]; assay type: functional
[16] = molecular target: Heat shock protein HSP 90-alpha (Homo sapiens, UniProt P07900); assay type: functional, organism-based
[17] = MC4R antagonists, dose response, counter-screen for LGR2 antagonist project, cell-based, plate reader, cherry pick (AID 743444); assay type: functional;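 note: transfected HEK 293 cells stimulated with alpha-MSH peptide; potency of inhibitors of the alpha-MSH evoked signal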
[18] = HepG2 cell cytotoxicity, dose response, cytotoxicity control, plate reader, cherry-pick, antagonist series (AID 743416); assay type: functional, cell-based
[19] = HEK293 cell cytotoxicity, dose response, cytotoxicity control, plate reader, cherry-picked samples (AID 743446); assay type: functional, cell-based
Protein RecA = molecular target: T5, Protein RecA (Mycobacterium tuberculosis, UniProt P9WHJ3); experiment: Fluorescence Cell-Free Homogeneous Dose Retest to Identify Inhibitors of RecA-Intein Splicing Activity. [Related pubchem assays (depositor defined):AID2097, AID2223, AID489010, AID492950]; assay type: functional
T5 sequence (P9WHJ3 whole entry): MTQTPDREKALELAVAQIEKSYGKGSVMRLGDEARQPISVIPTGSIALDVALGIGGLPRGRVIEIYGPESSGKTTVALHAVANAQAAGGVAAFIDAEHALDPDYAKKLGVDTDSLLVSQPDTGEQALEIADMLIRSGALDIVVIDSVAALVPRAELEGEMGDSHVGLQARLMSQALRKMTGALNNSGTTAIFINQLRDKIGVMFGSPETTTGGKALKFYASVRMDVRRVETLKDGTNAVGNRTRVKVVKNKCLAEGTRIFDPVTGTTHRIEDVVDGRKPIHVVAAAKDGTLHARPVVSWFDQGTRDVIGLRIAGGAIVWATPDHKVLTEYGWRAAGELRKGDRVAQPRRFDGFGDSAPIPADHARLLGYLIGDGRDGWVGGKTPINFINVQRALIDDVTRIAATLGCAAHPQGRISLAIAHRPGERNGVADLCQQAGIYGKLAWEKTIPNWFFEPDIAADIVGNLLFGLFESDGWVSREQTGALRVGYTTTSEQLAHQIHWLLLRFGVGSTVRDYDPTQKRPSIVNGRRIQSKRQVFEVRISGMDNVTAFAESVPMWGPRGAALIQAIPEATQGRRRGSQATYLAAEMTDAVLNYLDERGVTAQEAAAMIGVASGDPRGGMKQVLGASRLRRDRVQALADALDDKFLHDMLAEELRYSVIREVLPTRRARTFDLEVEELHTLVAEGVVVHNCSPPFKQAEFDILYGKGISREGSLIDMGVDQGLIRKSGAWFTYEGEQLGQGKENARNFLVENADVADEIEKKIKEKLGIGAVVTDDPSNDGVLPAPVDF

HeLa = experiment: Cytotoxicity counterscreen assay for transcriptional activators of heat shock protein 70 (Hsp70). [Related pubchem assays: 1203, 1252 ]; assay type: functional; details: Homo sapiens;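 note: cells exposed to compound for 16 hours before readout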
[20] = molecular target: T2, Kappa-type opioid receptor; assay type: functional; remark: listed apart in the source

T1 sequence (Q8VNN2 whole entry): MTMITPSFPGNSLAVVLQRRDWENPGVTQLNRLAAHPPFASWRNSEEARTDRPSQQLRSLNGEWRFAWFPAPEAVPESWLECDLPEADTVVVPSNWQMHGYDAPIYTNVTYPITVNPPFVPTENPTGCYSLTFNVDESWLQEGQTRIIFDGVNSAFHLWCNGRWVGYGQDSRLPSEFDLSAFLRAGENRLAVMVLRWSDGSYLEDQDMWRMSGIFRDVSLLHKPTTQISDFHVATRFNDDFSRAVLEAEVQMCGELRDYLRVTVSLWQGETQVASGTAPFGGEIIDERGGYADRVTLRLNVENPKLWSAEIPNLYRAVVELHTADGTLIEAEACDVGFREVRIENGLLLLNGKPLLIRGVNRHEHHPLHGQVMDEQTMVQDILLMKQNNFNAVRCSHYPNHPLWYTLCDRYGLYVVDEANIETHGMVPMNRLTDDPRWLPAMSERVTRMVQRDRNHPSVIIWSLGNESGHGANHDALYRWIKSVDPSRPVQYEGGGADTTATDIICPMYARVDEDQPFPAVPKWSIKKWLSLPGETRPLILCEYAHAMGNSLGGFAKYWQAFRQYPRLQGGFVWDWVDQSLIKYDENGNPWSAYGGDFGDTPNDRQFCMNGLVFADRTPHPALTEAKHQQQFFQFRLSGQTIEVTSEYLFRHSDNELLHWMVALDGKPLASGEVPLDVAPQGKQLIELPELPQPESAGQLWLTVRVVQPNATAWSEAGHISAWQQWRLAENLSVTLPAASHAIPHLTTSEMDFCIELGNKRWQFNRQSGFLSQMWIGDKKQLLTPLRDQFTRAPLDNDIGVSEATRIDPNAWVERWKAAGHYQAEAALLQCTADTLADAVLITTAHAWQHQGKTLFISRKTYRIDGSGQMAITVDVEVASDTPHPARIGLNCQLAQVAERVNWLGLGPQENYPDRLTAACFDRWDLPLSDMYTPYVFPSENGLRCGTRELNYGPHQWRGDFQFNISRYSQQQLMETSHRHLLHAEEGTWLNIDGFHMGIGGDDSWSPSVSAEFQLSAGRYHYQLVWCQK
T2 sequence (P41145 whole entry): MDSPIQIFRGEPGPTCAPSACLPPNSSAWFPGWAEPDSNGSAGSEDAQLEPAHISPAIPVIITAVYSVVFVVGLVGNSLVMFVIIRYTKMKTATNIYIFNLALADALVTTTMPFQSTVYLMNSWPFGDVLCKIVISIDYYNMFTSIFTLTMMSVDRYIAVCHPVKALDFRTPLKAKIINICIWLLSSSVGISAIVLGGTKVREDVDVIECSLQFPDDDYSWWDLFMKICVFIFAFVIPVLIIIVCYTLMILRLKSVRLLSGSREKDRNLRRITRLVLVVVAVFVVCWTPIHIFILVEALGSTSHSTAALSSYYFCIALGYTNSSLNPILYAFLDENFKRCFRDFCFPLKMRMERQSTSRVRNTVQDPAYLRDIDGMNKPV
Sequence of Sphingosine 1-phosphate receptor 4 (O95977 whole entry): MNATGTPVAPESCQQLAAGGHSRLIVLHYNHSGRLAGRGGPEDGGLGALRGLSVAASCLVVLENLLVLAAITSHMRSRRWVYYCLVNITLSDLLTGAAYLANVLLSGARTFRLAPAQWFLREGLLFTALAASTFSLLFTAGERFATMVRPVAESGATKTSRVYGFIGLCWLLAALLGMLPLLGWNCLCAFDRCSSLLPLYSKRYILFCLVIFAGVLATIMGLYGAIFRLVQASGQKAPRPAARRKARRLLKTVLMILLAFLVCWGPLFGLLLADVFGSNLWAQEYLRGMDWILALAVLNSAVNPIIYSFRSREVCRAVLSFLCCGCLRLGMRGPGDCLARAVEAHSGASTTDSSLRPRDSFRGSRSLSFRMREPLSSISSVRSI
Sequence of Sphingosine 1-phosphate receptor 1 (P21453 whole entry): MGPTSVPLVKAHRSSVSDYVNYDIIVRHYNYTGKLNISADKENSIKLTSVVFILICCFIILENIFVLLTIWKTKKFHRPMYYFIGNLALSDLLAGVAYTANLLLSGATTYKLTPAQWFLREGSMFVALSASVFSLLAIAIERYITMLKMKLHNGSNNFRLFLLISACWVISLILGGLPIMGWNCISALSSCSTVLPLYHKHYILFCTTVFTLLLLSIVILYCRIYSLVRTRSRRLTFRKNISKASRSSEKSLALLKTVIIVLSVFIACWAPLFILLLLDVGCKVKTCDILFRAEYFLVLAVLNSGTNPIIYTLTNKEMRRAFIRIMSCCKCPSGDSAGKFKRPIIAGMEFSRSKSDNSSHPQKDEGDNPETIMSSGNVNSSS

**Q.** Which CC50 (Vero [1]) does the source give for `Cc1cccc2c(=O)n(-c3ccccc3)c(SCC(=O)Nc3ccc4c(c3)CCC4)nc12` here?
**A.** > 200 µM (active)

**Q.** And the IC50 [2]?
**A.** > 133 µM (active)

**Q.** What about the CC50 (Vero [3]) of the same compound?
**A.** > 133 µM (active)

**Q.** What does the source list for `CC(C)(C)c1ccc(-n2nc(C#N)c(Cl)cc2=O)cc1`?
**A.** EC50 (Beta-galactosidase [4]): > 31.5 µM (inactive); EC50 (BJ): 1.13 µM (active); IC50 [5]: 3.68 µM (active); EC50 [6]: > 38 µM (not active); AC50 [7]: 0.746 µM (active); IC50 [8]: 38.5 µM (not active); EC50 (Beta-galactosidase [9]): > 40 µM (inactive); IC50 [10]: 9.04 µM (active); AC50 [11]: 2.83 µM (active); AC50 [12]: 2.85 µM (active); AC50 [13]: 12 µM (active); EC50 [14]: 5.04 µM (inconclusive); IC50 [15]: 1.87 µM (active); AC50 [16]: 3.8 µM (active); AC50 [17]: 14.4 µM (active); AC50 [18]: 2.81 µM (active); AC50 [19]: 6.44 µM (active); EC50 (Protein RecA): 0.989 µM (active); CC50 (HeLa): > 3.67 µM (not active); pIC50 [20]: 5.40
